Data taken from patent US11780838B1, “Pyrrolo[3,2-b]quinoline compounds as antibacterial agents” (King Faisal University, priority 2023, dated 2023).
Values after ≈ are worked out from the molar mass of the structure shown. Read-outs that look alike come from different tables or passages of the source.

Tests used:
[1] = tested on: Klebsiella pneumonia MTCC 618; assay: In vitro antibacterial activity (MIC, CLSI M07-A10 dilution); assay type: cell-based; details: Klebsiella pneumoniae, MTCC618
DNA gyrase from E. coli = biological target: T1, DNA gyrase from E. coli (Escherichia coli, UniProt P0AES4+P0AES6); assay: Inhibitory activities on E. coli DNA gyrase (Inspiralis assay); assay type: biochemical
T1 construct: purchased Inspiralis
T1 sequence (P0AES4 whole entry, one chain of several): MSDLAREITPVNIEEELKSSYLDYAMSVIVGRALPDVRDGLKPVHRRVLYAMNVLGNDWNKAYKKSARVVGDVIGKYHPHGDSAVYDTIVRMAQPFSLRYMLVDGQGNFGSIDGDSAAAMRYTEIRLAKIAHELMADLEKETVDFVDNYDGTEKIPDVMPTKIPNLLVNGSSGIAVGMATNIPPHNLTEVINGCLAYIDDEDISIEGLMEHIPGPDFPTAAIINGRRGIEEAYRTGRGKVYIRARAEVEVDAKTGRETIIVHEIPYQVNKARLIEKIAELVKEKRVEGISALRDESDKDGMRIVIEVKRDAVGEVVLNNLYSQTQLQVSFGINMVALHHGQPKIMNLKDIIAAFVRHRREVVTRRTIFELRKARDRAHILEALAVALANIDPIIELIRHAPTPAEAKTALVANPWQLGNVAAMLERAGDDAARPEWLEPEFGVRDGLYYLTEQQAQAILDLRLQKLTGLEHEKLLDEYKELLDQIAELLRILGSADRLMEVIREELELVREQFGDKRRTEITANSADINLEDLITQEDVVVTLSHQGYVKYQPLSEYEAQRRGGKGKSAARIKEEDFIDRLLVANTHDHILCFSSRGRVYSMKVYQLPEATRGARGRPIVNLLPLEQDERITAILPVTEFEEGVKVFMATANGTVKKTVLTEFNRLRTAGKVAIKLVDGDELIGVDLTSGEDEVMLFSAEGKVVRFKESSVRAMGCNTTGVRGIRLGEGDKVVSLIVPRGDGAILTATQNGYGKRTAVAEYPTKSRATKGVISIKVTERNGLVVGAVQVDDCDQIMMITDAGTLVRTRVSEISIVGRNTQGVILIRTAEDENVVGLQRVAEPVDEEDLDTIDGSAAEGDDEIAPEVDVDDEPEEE
Method: Inhibitory potencies were investigated utilizing the Inspiralis assay on streptavidin-coated 96-well microtiter plates. First, the plates were rehydrated with buffer (20 mM Tris-HCl with pH 7.6, 0.01% w/v BSA, 0.05% v/v Tween 20, 137 mM NaCl) and the biotinylated oligonucleotide was then immobilized. After washing off the unbound oligonucleotide, the enzyme test was performed. […] Reaction solutions were incubated at 37° C. for 30 min. After that, the TF buffer (50 mM NaOAc with pH 5.0, 50 mM NaCl and 50 mM MgCl2) was added to terminate the enzymatic reaction. After additional incubation for 30 min at rt, during which biotinoligonucleotide-plasmid triplex was formed, the unbound plasmid was washed off using TF buffer and SybrGOLD in T10 buffer (10 mM Tris HCl with pH 8.0 and 1 mM EDTA) was added. The fluorescence was measured with a microplate reader (BioTek Synergy H4, excitation: 485 nm, emission: 535 nm). Initial screening was done at 100 or 10 μM concentration of inhibitors. […] GraphPad Prism software was used to calculate the IC50 values. The result is given as the average value of three independent measurements.

[2] = tested on: Mycobacterium tuberculosis H37Rv strain; assay: Anti-tubercular properties (alamar blue microplate MIC); assay type: cell-based; details: 168 h, seven days at 37° C., read-out: anti-mycobacterial activity (MIC)
[3] = tested on: Enterococcus faecium ATCC 51559 (VRE resistant); assay: In vitro antibacterial activity (MIC, CLSI M07-A10 dilution); assay type: cell-based
[4] = tested on: Bacillus subtilis MTCC 441; assay: as above; assay type: cell-based; details: MTCC441
[5] = tested on: Pseudomonas aeruginosa MTCC 741; assay: as above; assay type: cell-based; details: MTCC741
[6] = tested on: Staphylococcus aureus ATCC BAA-1556 (MERSA resistant); assay: as above; assay type: cell-based; details: ATCCBAA1556
[7] = tested on: Escherichia coli MTCC 443; assay: as above; assay type: cell-based; details: MTCC443
[8] = tested on: Staphylococcus epidermidis; assay: as above; assay type: cell-based
[9] = tested on: Staphylococcus aureus ATCC 29213; assay: as above; assay type: cell-based; details: ATCC29213
[10] = tested on: Enterococcus faecium ATCC 35667; assay: as above; assay type: cell-based; details: ATCC35667

SMILES: CN[C@H](CC(C)C)C(=O)N[C@H]1C(=O)N[C@@H](CC(N)=O)C(=O)N[C@H]2C(=O)N[C@H]3C(=O)N[C@H](C(=O)N[C@H](C(=O)O)c4cc(O)cc(O)c4-c4cc3ccc4O)[C@H](O)c3ccc(c(Cl)c3)Oc3cc2cc(c3O[C@@H]2O[C@H](CO)[C@@H](O)[C@H](O)[C@H]2O[C@H]2C[C@](C)(N)[C@H](O)[C@H](C)O2)Oc2ccc(cc2Cl)[C@H]1O [Vancomycin, reference compound]
- MIC [1]: > 128 µg/mL

SMILES: CNc1cc(F)cc2cc3[nH]c(-c4ccc(C(=O)O)cc4CN(C)C4CCCCC4)cc3nc12 [Compound 4, 3-((cyclohexyl(methyl)amino)methyl)-4-(7-fluoro-5-(methylamino)-1H-pyrrolo[3,2-b]quinolin-2-yl)benzoic acid]
- IC50 (DNA gyrase from E. coli): 32 nM
- MIC [2]: 8 µg/mL (≈ 17.4 µM)

SMILES: CCCCCN(C)Cc1cc(C(=O)O)ccc1-c1cc2nc3c(NC)cc(F)cc3cc2[nH]1 [Compound 6, 4-(7-fluoro-5-(methylamino)-1H-pyrrolo[3,2-b]quinolin-2-yl)-3-((methyl(pentyl)amino)methyl)benzoic acid]
- MIC [3]: 1.25 µg/mL (≈ 2.79 µM)
- MIC ([1]; Klebsiella pneumonia MTCC 618, read-out: MIC): 1.25 µg/mL (≈ 2.79 µM)
- MIC [4]: 0.75 µg/mL (≈ 1.67 µM)
- MIC [5]: 1 µg/mL (≈ 2.23 µM)
- MIC [6]: 1 µg/mL (≈ 2.23 µM)
- MIC [7]: 8 µg/mL (≈ 17.8 µM)
- MIC [8]: 1 µg/mL (≈ 2.23 µM)
- MIC [9]: 1 µg/mL (≈ 2.23 µM)
- MIC [10]: 1 µg/mL (≈ 2.23 µM)
